Molecules are shown by their SMILES. Like-named read-outs stand apart in the source and are kept apart here.

3 compounds from patent US20230405003A1, “APPLICATION OF THYMIDINE DERIVATIVE IN PREPARATION OF DRUGS” (ONQUALITY PHARMACEUTICALS CHINA LTD., priority 2020, published 2023) can be followed below.

Common to all, as to type: in vivo
Experiment [1] relates to 5-FU-induced diarrhea in Balb/c mice. The experiment can be described thus: 5-FU-induced diarrhea mouse model (175 mg/kg single i.p.). The following applies: 5-FU 175 mg/kg single i.p.; for Survival Rate / Average Diarrhea Grade: 6 days; for Average Diarrhea Grade: score 0-4. The method, then:
7-8-week-old male Balb/c mice were used to establish a 5-FU induced diarrhea model to test the effect of the thymidine derivative or the combination of thymidine derivative and uridine derivative on the relief of diarrhea.
Modeling dose of 5-Fu: 175 mg/kg; single administration, intraperitoneal injection (ip.);
Administration mode of the compound to test (thymidine derivative or combination of thymidine derivative and uridine derivative): single administration, by gavage, advance administration of the compound to test at various time points prior to intraperitoneal injection of 5-FU. The compound to test was administered 1 h prior to the administration of 5-FU, a certain amount of 5-FU was injected intraperitoneally 1 h later, and the compound to test was administered once again 7 h after the injection of 5-FU.
The mice were fed and adapted for one week, and then divided into groups, with 10 mice in each group for administration test.
The mice in the Group of blank was injected with 0.9% NaCl, and evaluated the effect by observing the change of diarrhea grade, food uptake, and weight change. The severity of diarrhea was scored in accordance with the following standards: 0: normal feces, 1: soft feces, 2: slightly wet, soft feces, 3: wet, unformed feces, with moderate coloration in perianal region, 4: watery feces with heavy coloration of hair in perianal region. The severity of diarrhea was evaluated by occurrence scores of various grades of diarrhea (Scores 0 to 4) and average score of diarrhea. […] The models were stable, and satisfied the experimental requirements.
5-FU was dissolved in a 0.9% NaCl solution, the mice in the model group and the treatment group were all i.p. injected at a dose of 175 mg/kg/d, […]. While modeling of injection administration of 5-FU, the thymidine derivative or the combination of thymidine derivative and uridine derivative was administered by gavage, and the compounds to test were dissolved in a PBS solution containing 5% DMSO+1% HPMC. Body weight was weighed daily to count the weight change (Δ % BW, the weight changes recorded in the table were the values on Day 6), and the food was weighed daily to calculate the food uptake. The mice were daily observed for their clinical status, e.g., activity, diarrhea, hair, fighting, etc. After 6 days, the experiments were completed and statistically analyzed for the results.

Experiment [2] relates to hand-foot syndrome caused by capecitabine in SD rats. The experiment can be described thus: Rat model of hand-foot syndrome caused by capecitabine, gel application. To be noted: rats, capecitabine 4000 mg/kg once daily, 40 days; for inhibition in vivo at 1 % / inhibition in vivo at 5 % / inhibition in vivo at 3 %: Rattus norvegicus, topical, 960 h; for inhibition in vivo at 5 %: gel 5 wt%. In a few lines:
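Female SD rats (~200 g, n=10/group) were given daily oral capecitabine (castor oil/ethanol 1:1, diluted with PBS). Thymidine derivative gel, alone or combined with uridine derivative, or blank gel was applied to both hind paws for ~4 h daily until blank controls developed hand-foot syndrome. Control rate was blank incidence minus treated incidence; paws were also examined by HE and IHC.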

Experiment [3] deals with hand-foot syndrome caused by capecitabine in Balb/c mice. The experiment can be described thus: Mouse model of hand-foot syndrome caused by capecitabine, gel application or oral administration. To be noted: Mus musculus, 192 h, capecitabine 1000 mg/kg once daily, oral 250 mpk twice per day, 8 days. The method, then:
A mouse animal model was established. 6-week aged male Balb/c mice were administered with capecitabine by daily gavage. After a few days, mice's paws developed hand-foot syndrome symptoms (similar to the results of the rat model, such as, in FIG. 13). Similar to the human body, mice developed hand-foot syndrome in the forepaws and hind paws after oral administration of capecitabine. The causes of the two are the same, and the disorder is also very similar. Therefore, mice are very good animal models for simulating the hand-foot syndrome caused by capecitabine.
After Balb/c mice were fed and adapted for one week (about 20 g), the mice were divided into groups, with 10 mice in each group. Then, the mice were subject to gavage administration. Capecitabine was dissolved in normal saline with pH=8, and the gavage dose was not greater than 0.3 mL at each time. After gavage, the blank gel was applied to the forepaws and the hind paws (about 4*0.5 cm*0.5 cm) in group of blank gel, and gels containing different drugs were applied to the forepaws and the hind paws (about 4*0.5 cm*0.5 cm) in group of administration. After application, the mice were fixed in Elizabethan collar for 4 hours. After 4 hours, the mice were released, wiped with clean water to remove any residual drug at the application site, and allowed back to the cage. The gavage and application tests are repeated daily until the group of blank has developed obvious hand-foot syndrome. […] Additionally, the thymidine derivative and the combination of thymidine derivative and uridine derivative were orally administered for observing the relief of the hand-foot syndrome. In examples 41-48, thymidine derivative and/or uridine derivative were/was applied, and in examples 49-52, thymidine derivative and/or uridine derivative were/was administered orally.
Table 5 lists the combinations of animal experiments of capecitabine and thymidine derivative (or a combination of thymidine derivative and uridine derivative) and the corresponding experimental results (wherein the data in the column of control rate=the occurrence rate of hand-foot syndrome in group of blank—the occurrence rate of hand-foot syndrome in group of administration).
The effect of thymidine derivative or a combination of thymidine derivative and uridine derivative on a mouse model with chemotherapeutic drug (capecitabine)-induced hand-foot syndrome was tested according to the method in Examples 41-52. Wherein, the drugs were administered transdermally for Examples 119-120 and orally for Examples 121-123.
The test thymidine derivative or the combination of thymidine derivative and uridine derivative, as well as the final concentration of the test compounds were shown in Table 9. Table 9 lists the combinations of animal experiments of capecitabine and the thymidine derivative gel (or a compounded gel of thymidine derivative and uridine derivative) and the corresponding experimental results (wherein the data in the column of control rate=the occurrence rate of hand-foot syndrome in Group of blank—the occurrence rate of hand-foot syndrome in Group of administration).

[4] abbreviates: read-out: Control Rate Forepaws.
Setting [5] is: read-out: Control Rate Hindpaws.

With `Cc1ccc(C(=O)c2ccc(CC(=O)O[C@H]3C[C@H](n4cc(C)c(=O)[nH]c4=O)O[C@@H]3CO)n2C)cc1` [T45], the “Δ % BW (on Day 6)” value in experiment [1] (15 mpk gavage) is reported as −0.34% ± 0.36%. Moreover, in experiment [1] (15 mpk gavage), the “Survival Rate” value is 100%. Further, the “Average Diarrhea Grade” value in experiment [1] (15 mpk gavage) stood at 1.4. For the same compound, the inhibition in vivo at 1 % in experiment [2] (gel 1 wt%, read-out: Control Rate Forepaws) turned out to be 25%; in experiment [2] (gel 1 wt%, read-out: Control Rate Hindpaws), 37.5%. The inhibition in vivo at 5 % in experiment [2] (setting [4]) was determined as 55.6%; in experiment [2] (setting [5]), 77.8%. Besides, the results for the inhibition in vivo at 250 mg/kg in experiment [3] (setting [4]) and in experiment [3] (setting [5]) were 57.1% and 42.9%, respectively.
`Cc1ccc(C(=O)c2ccc(CC(=O)OC[C@H]3O[C@@H](n4cc(C)c(=O)[nH]c4=O)C[C@@H]3O)n2C)cc1` [T36]: in experiment [1] (50 mpk gavage), the “Δ % BW (on Day 6)” value is reported as 2.25% ± 0.54%, the “Survival Rate” value amounted to 100% and the “Average Diarrhea Grade” value was found to be 1.6. Besides, in experiment [2] (gel 1 wt%), the “Control Rate Forepaws” value worked out at 28.57% and the “Control Rate Hindpaws” value is reported as 42.86%. Also, in experiment [2] (gel 3 wt%), the “Control Rate Forepaws” value amounted to 44.44% and the “Control Rate Hindpaws” value was found to be 44.44%.
In the case of `Cc1cn([C@H]2C[C@H](OC(=O)C(C)c3cccc(C(=O)c4ccccc4)c3)[C@@H](CO)O2)c(=O)[nH]c1=O` (stereo partly drawn) [T50], in experiment [1] (50 mpk gavage), the “Δ % BW (on Day 6)” value is 2.08% ± 0.86%, the “Survival Rate” value is on record as 100% and the “Average Diarrhea Grade” value turned out to be 1.1. Moreover, the inhibition in vivo at 3 % in experiment [2] (gel 3 wt%, read-out: Control Rate Forepaws) is 71.4%. The inhibition in vivo at 3 % in experiment [2] (gel 3 wt%, read-out: Control Rate Hindpaws) stood at 57.1%.
